Common to all, as to type: cell-based, human
Series [1] deals with hEPCs. As to the kind of experiment: hEPC adhesion assay on fibronectin. The note with it: L-Hcy 250 μmol/L, 48 h. An excerpt: (§1) In this study EPCs refer to endothelial colony-forming cells (ECFCs) and their progenitor cell capacities were characterized as described (Wu, Y et al., J Thromb Haemost, 2010; 8:185-193; Wang, H et al., Circulation research, 2004; 94:843 and Stellos, K et al., Eur Heart J., 2009; 30:584-593). Briefly, human blood was collected from healthy volunteer donors. All volunteers had no risk factors of CVD including hypertension, diabetes, smoking, positive family history of premature CVD and hypercholesterolemia, and were all free of wounds, ulcers, retinopathy, recent surgery, inflammatory, malignant diseases, and medications that may influence EPC kinetics. After dilution with HBSS (1:1), blood was overlaid onto Histopaque 1077 (Sigma-Aldrich Co. LLC, St. Louis, Mo.) in the ratio of 1:1 and centrifuged at 740 g for 30 minutes at room temperature. Buffy coat MNCs were collected and centrifuged at 700 g for 10 minutes at room temperature. MNCs were cultured in collagen type I (BD Bioscience, San Diego) (50 m/ml)-coated dishes with EBM2 basal medium (Lonza Inc., Allendale, N.J.) plus standard EGM-2 SingleQuotes (Lonza Inc., Allendale, N.J.) that includes 2% fetal bovine serum (FBS), EGF (20 ng/ml), hydrocortisone (1 μg/ml), bovine brain extract (12 μg/ml), gentamycin (50 μg/ml), amphotericin B (50 ng/ml), and epidermal growth factor (10 ng/ml). Colonies appeared between 5 and 22 days of culture were identified as a well-circumscribed monolayer of cobblestone-appearing cells. […] After staining, cells were imaged with high-power fields under an inverted fluorescent microscope (Axiovert 200, Carl Zeiss, Thornwood, N.Y.) at 200× magnification and quantified using Image J software. […]
EPC adhesion to extracellular matrix (ECM) was evaluated as previously described. […] Adherent cells were photographed with high-power fields under an inverted fluorescent microscope (Axiovert 200, Carl Zeiss, Thornwood, N.Y.) at 200× magnification and quantified by counting the attached cells using image J.

The subject of series [2] is hEPCs. As to the kind of experiment: hEPC scratch wound migration assay.
Text: as §1, with “cells. ECFCs with endothelial lineage markers expression, robust proliferative potential, colony-forming, and vessel-forming activity in vitro are defined as EPCs as described (Wang, H et al., Circulation research, 2004; 94:843 and Stellos, K et al., Eur Heart J., 2009; 30:584-593). Passage 4 to 6 EPCs were used for experiments. For a brief characterization, endothelial phagocytosis function was confirmed by incubating EPC in 4-well chamber slide with 1, 1-dioctadecyl-3, 3, 3, 3-tetramethylindocarbocyanine (DiI)-labeled acetylated low-density lipoprotein (acLDL) (Biomedical Technologies, Inc., Stoughton, Mass.) (5 m/ml) at 37° C. for 1 h, washed 3 times for 15 min in PBS, and then fixed with 2% paraformaldehyde for 10 min.” for “cells.”
EPC migration was evaluated using a scratch wound assay as previously described (Tan, H et al., Cardiovascular research, 2006; 69:253-262). […]

Series [3] concerns hEPCs. The series is described as follows: hEPC 3H-thymidine incorporation proliferation assay. To be noted: L-Hcy 50 to 250 μmol/L, 24 h. An excerpt:
In this study EPCs refer to endothelial colony-forming cells (ECFCs) and their progenitor cell capacities were characterized as described (Wu, Y et al., J Thromb Haemost, 2010; 8:185-193; Wang, H et al., Circulation research, 2004; 94:843 and Stellos, K et al., Eur Heart J., 2009; 30:584-593). Briefly, human blood was collected from healthy volunteer donors. All volunteers had no risk factors of CVD including hypertension, diabetes, smoking, positive family history of premature CVD and hypercholesterolemia, and were all free of wounds, ulcers, retinopathy, recent surgery, inflammatory, malignant diseases, and medications that may influence EPC kinetics. […] After staining, cells were imaged with high-power fields under an inverted fluorescent microscope (Axiovert 200, Carl Zeiss, Thornwood, N.Y.) at 200× magnification and quantified using Image J software. […]
^3H thymidine incorporation assay was used to detect EPC proliferation activity as previously described (Tan, H et al., Cardiovascular research, 2006; 69:253-262). ^3EPCs were seeded onto 24-well plates (5×10^4 cells/well) in EGM2 medium and exposed to L-Hcy (50 to 250 μmol/L) for 24 h after grown to 70-80% confluence. […] Incorporated [methyl-^3H] thymidine was measured in a liquid scintillation counter (PerkinElmer Inc. Waltham, Mass., USA).

Series [4] relates to hEPCs. As to the kind of experiment: hEPC viability by crystal violet staining. To be noted: L-Hcy 48 h. The protocol: Confluent hEPCs were treated with L-Hcy at indicated concentrations for functional studies as described in the section of Methods. FIG. 5A. […] FIG. 5B. Representative images of hEPC adhesion. hEPCs treated with L-Hcy for 48 h were harvested and plated on fibronectin-coated cell culture plates for 1 hour at 37° C. Attached cells were photographed and quantified in high-power fields under an inverted microscope. FIG. 5C. Quantitative analysis of adhesion. FIG. 5D. Representative images of hEPC migration. Confluent hEPCs were incubated with L-Hcy for 48 h, scratched to create a wound and evaluated for migration after 20 h. E. Quantitative analysis of migration. FIG. 5F. Quantitative analysis of hEPC proliferation. 80% confluent hEPCs were treated with L-Hcy for 24 h and labeled with ^3[H]-thymidine for the last 4 h. Incorporated ^3[H]-thymidine was measured in a liquid scintillation counter. FIG. 5G. Quantitative analysis of hEPC viability. Confluent hEPCs were treated with L-Hcy for 48 h and nuclear counts determined by crystal violet staining to determine the viable cells. Data are representative of 3 separate experiments and are shown as mean±SD. *P<0.05 versus control. hEPCs; human endothelial progenitor cells; Hcy, homocysteine.

Each structure is given as a SMILES string.

In the case of `N[C@@H](CCS)C(=O)O` [L-Hcy, homocysteine], the “EPC adhesion to fibronectin compared with the control” value with hEPCs [1] is on record as 57%. For the same molecule, the “Hcy-suppressed adhesion in hEPC (without 12G10)” value in the series on hEPCs [1] (adhesion rescue experiment) stood at 62%. For the same molecule, in the series on hEPCs [1] (control 0.13±0.006), the “EPC adhesion to fibronectin” value is reported as 0.06±0.008 OD630 nm. Besides, in the series on hEPCs [2] (Hcy 100 μmol/L), the “hEPC migration (value in brackets)” value came to 54.6±2.8 and the “hEPC migration reduced to” value is reported as 68%. Also, in the series with hEPCs [2] (Hcy 250 μmol/L), the “hEPC migration (value in brackets)” value came out at 49.7±1.1 and the “hEPC migration reduced to” value is listed as 62%. Further, the “DNA synthesis ([3H] thymidine uptake)” value in the series on hEPCs [3] is on record as “dose sensitively inhibited”. In addition, the EPC viability entry in the series on hEPCs [4] is given as “no effect”.
